The values that follow are results of earlier work, collected in US9408867B2, “Antifungal compositions for the treatment of skin and nails” (Veloce BioPharma, LLC, priority 2011, dated 2016).

SMILES strings stand for the structures. Like-named read-outs stand apart in the source and are kept apart here.

For data set [1] the following is noted: 50% solution of DMSO in water.
For data set [2] the following is noted: human skin in vitro.

Regarding `C[C@]12CCC(=O)C=C1CC[C@@H]1[C@@H]2[C@@H](O)C[C@@]2(C)[C@H]1CC[C@]2(O)C(=O)CO` [hydrocortisone], in data set [1], the rate of penetration entry is reported as “markedly enhanced”.

In the case of `COC1=CC(=O)C[C@@H](C)[C@]12Oc1c(Cl)c(OC)cc(OC)c1C2=O` [griseofulvin], the ratio of penetration in data set [2] (dissolved in DMSO) is 60; in data set [2] (dissolved in alcohol), 3; in data set [2] (dissolved in benzene) it was 1; in data set [2] (dissolved in dimethylacetamide), 40; in data set [2] (dissolved in dimethylformamide) it was 7.
